According to article PMC7994712 (Nature Communications, 2021):
Read-outs that look alike come from different tables or passages of the source. Where a SMILES comes first, the peptide text is derived from it. Bridges are numbered along the chain shown (N, C = ends).

How the values were obtained:
[1] = system: serum of mice with TNBS-induced acute colitis; assay: Serum cytokines in TNBS-induced acute colitis; format: in vivo, mouse
Excerpt: In both TNBS-induced acute and chronic colitis, animals were daily monitored for the appearance of diarrhea, body weight loss and survival. At different time points, colitis signs were scored in base of stool consistency and rectal bleeding by two blinded observers using the following scale: 0 = normal stool appearance, 1 = slight decrease in stool consistency, 2 = moderate decrease in stool consistency, 3 = moderate decrease in stool consistency and presence of blood in stools, 4 = severe watery diarrhea and moderate/severe bleeding in stools. […] After macroscopic examination, various colonic segments were immediately frozen in liquid nitrogen for protein extraction and cytokine determination or for histopathological analysis as described below. In some animals, MLNs were isolated 10 days after TNBS injection and assayed for proliferation, cytokine production and flow cytometric analysis as described below. Moreover, sera were collected by cardiac puncture at day 10 after TNBS injection and the levels of cytokines and anti-TNBS IgG were determined by specific ELISAs as described below. […]
Supplementary Table 3. Serum cytokines in TNBS-in du ced acu t e col i ti s.
Treatments were administered in a curative regime as described in Figure 4 and sera were collected 10
days after TNBS infusion. n=8 mice/group. Data are mean ± SEM. […]

[2] = system: colonic mucosa of mice with TNBS-induced acute colitis; assay: Cytokines in colonic mucosa, TNBS-induced acute colitis; format: in vivo, mouse; conditions: Figure 5c, mean of 8 mice
Experimental: Control mice received 50% ethanol alone.
Protein extracts were isolated by homogenisation of colonic segments (50 mg tissue/mL) in 50 mM Tris-HCl, pH 7.4, with 0.5 mM DTT, and 10 μg/mL of a cocktail of proteinase inhibitors (all from Sigma-Aldrich). Samples were centrifuged at 30,000×g for 20 min and stored at –80 °C until cytokine determination.

[3] = target: T1, SSTR3 (Homo sapiens, UniProt P32745); set-up: method as in earlier work; conditions: literature values marked *; ref 1 (supplementary references); cited from earlier work
T1 construct: host or cells: CHO-K1
T1 sequence (P32745 whole entry): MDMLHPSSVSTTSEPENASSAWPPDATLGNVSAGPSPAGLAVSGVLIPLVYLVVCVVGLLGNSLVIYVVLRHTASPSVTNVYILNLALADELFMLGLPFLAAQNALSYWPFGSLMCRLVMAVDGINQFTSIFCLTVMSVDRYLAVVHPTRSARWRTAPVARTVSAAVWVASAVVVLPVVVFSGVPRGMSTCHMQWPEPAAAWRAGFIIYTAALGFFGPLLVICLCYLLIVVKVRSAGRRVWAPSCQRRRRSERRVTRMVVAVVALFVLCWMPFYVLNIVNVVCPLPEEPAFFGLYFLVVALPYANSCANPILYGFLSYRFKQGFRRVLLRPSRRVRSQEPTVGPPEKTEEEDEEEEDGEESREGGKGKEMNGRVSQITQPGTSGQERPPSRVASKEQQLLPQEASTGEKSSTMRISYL
Excerpt: (§1) The peptide backbone is shown in gold and the N- and C-terminus residues, as well as the disulfide bond are labelled. Representative aromatic clusters. All side chains are shown to facilitate structural analysis. Side chains participating in the interactions are specifically labelled. c Schematic representation of Cortistatin-14 sequence. […] 1-2. […] 3-1. […] 3-1. […] 3-1.

[4] = target: T2, SSTR2 (Homo sapiens, UniProt P30874); set-up: method as in earlier work; conditions: literature values marked *; ref 1 (supplementary references); cited from earlier work
T2 construct: host or cells: CHO-K1
T2 sequence (P30874 whole entry): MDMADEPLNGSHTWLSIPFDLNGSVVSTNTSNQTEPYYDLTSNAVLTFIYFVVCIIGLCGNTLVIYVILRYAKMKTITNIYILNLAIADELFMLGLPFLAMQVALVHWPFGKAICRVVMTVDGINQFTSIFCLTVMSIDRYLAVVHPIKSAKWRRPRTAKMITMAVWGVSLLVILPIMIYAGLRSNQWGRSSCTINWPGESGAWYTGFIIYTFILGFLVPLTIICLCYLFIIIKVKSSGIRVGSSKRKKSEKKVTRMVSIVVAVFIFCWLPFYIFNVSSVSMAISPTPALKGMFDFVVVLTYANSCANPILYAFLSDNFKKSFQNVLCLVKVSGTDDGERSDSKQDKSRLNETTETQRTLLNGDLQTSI
Excerpt: as §1

[5] = target: T3, SSTR5 (Homo sapiens, UniProt P35346); set-up: method as in earlier work; conditions: literature values marked *; ref 1 (supplementary references); cited from earlier work
T3 construct: host or cells: CHO-K1
T3 sequence (P35346 whole entry): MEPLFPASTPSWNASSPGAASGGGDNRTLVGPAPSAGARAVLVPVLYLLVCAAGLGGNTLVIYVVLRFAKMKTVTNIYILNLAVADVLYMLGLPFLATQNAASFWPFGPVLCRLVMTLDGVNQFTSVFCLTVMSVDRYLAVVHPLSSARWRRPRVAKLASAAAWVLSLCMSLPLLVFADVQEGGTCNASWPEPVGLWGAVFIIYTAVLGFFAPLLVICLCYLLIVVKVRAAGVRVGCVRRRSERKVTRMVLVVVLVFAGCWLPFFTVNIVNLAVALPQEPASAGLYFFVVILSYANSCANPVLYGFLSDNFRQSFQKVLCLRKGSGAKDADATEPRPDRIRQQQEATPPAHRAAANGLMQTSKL
Excerpt: as §1

[6] = target: T4, SSTR4 (Homo sapiens, UniProt P31391); set-up: method as in earlier work; conditions: literature values marked *; ref 1 (supplementary references); cited from earlier work
T4 construct: host or cells: CHO-K1
T4 sequence (P31391 whole entry): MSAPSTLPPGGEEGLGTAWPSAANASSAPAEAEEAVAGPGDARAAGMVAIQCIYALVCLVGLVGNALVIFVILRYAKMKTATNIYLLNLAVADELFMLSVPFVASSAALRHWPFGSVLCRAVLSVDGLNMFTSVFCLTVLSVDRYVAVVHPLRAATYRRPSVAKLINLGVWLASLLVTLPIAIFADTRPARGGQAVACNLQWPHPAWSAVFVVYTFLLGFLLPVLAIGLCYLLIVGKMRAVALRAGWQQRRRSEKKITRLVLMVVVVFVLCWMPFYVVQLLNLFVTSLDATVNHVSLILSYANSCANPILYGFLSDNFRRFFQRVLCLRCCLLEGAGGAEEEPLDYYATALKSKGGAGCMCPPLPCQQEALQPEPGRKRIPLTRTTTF
Excerpt: as §1

[7] = target: T3, SSTR5; assay: Radio-ligand binding assay, SSTR5
Experimental: (§2) Graphical and tabular representation of the percentage inhibition of specific binding, as IC50 (nM) binding values for the analogues against the five SSTR1-SSTR5 is represented in Supplementary Fig. 1b and Supplementary Table 1. […] IC50 values were determined by a non-linear, least squares regression analysis using Prism 9 (GraphPad Software, USA), using the Dose-response inhibition (three-parameters) model. […]
(§3) (SSTR1-SSTR5), using a Radio-ligand Binding Assay (Supplementary Figure 1b). Cells were incubated in HEPES buffer pH 7.4 with the new analogues of Cortistatin at 10 different concentrations in a range […]
(§4) specifically bound (performed at Eurofins Panlabs, Inc.). The radioactivity obtained in the absence of SST14 is considered as total binding and that obtained in the presence of 1 µM of SST14 is considered as nonspecific binding. Specific binding was considered as the difference between total and nonspecific.
(§5) Biochemical assay results are presented as the percent inhibition of specific bindin g (% inhib ition) as a […]
(§6) part of each binding assay with the five (SSTR1 -SS T R5 ) . I C50 values were determined by a non-linear, least squares regression analysis using Prism 9 (GraphPad Software, USA), using the Dose -response inhibit ion (t hree-parameters) model.

[8] = target: T2, SSTR2; assay: Radio-ligand binding assay, SSTR2
Experimental: as §2, §3, §4, §5, §6

[9] = target: T1, SSTR3; assay: Radio-ligand binding assay, SSTR3
Experimental: as §2, §3, §4, §5, §6

[10] = In vitro stability of peptides in human plasma (half-life in serum); conditions: serum half-life of analogue 5 vs native CST
Experimental: The peptides were dissolved in water at a concentration of 6 mg/mL and warmed up to 37 °C. Human plasma was obtained as a lyophilised solid (K3 EDTA Plasma, BBI solutions, code S112-1), reconstituted with sterile 0.9% sodium chloride solution and stored at −20 °C. Human plasma was thawed and incubated at 37 °C before use.
The peptides were incubated in 90% human plasma at 37 °C for different times and then precipitated with two volume equivalents of methanol. […] The supernatant was filtered with a 0.45-µm PVDF filter and analysed in triplicate by RP-HPLC using an isocratic method (eluent A = 0.1%TFA in water; eluent B = 0.07%TFA in ACN, column = Kromasil C8, 100 Å, 5 µm, 250 × 4.6 mm, flow = 1 mL/min, wavelength = 220 nm, injection volume = 20 µL, Tª = 60 °C). The disappearance of the peptide was determined in relation to the area of the initial time for calculating its half-life.

[11] = in vitro; format: cell-based; conditions: mouse, peritoneal macrophages stimulated with LPS, Viability of Macrophages (%, vs. Initiation of culture)
Experimental: Mouse peritoneal macrophages were cultured in medium (unstimulated) or stimulated with LPS (1 μg/ml) in the absence or presence of Analogue 5 (100 nM). Mouse spleen cells were cultured in medium alone (unstimulated) or stimulated with anti -CD3 a ntib odies (2 μg/ml) in the absence or presence of analogue 5 (100 nM). After 24 hours (macrophages) or 48 hours (spleen cells) of culture, cell viability and apoptosis were determined. The percentage of cell viability relative to the initiation of cell c ult ure was determined using AlamarBlue assay (Thermo Fisher Scientific). The percentage of apoptotic cells was determined by flow cytometric analysis of Annexin Vpositive 7-amino-actinomycin Dnegative cell population (R&D Systems). Data are the mean ± SEM of 5 independe nt cultures performed in duplicates. […]
Treatments were administered in a curative regime as described in Figure 4 and sera were collected 10 days after TNBS infusion. n=8 mice/group. […] Statistical differences between groups were calculated usi ng unpa ired two -tailed Student’s t-test. ****p<0.0001 versus TNBS+saline […]
Total RNA was isolated from colon sections obtained at day 10 after TNBS injection following the manufacturer’s protocol (Tripure, Roche). […] SYBER green quantitative PCR (SensiFast Sybr No-Rox mix, Bioline) was performed as described in the […]

[12] = target: T5, SSTR1 (Homo sapiens, UniProt P30872); assay: Radio-ligand binding assay, SSTR1
T5 construct: host or cells: CHO-K1
T5 sequence (P30872 whole entry): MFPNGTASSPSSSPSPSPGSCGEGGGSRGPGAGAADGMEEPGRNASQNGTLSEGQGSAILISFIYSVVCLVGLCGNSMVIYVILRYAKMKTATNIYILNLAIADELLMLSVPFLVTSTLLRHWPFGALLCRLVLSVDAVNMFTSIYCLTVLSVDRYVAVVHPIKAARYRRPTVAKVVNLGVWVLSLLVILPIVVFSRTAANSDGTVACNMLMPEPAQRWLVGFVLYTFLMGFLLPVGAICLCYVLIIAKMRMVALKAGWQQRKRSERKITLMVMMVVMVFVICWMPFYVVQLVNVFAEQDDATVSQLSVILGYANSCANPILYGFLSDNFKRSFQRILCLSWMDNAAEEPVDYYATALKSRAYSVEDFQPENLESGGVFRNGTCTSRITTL
Experimental: as §2, §3, §4, §5, §6

[13] = system: LPS-activated mouse Raw 264 macrophages; assay: Inflammatory response of LPS-activated RAW 264 macrophages; format: cell-based; conditions: 100 nM (Supplementary Fig. 2c)
Experimental: Inflammatory response was assayed in vitro on the mouse macrophagic cell line RAW 264 macrophages and mouse primary peritoneal macrophages. RAW 264 cells (ATTC, TIB-71) were grown at 5 × 10^5 cells/mL in complete DMEM medium (DMEM supplemented with 100 U/mL penicillin/streptomycin, 2 mM L-glutamine, 50 μM 2-mercaptoethanol and 10% heat-inactivated fetal calf serum) until reaching a confluence of 80% and then incubated in the absence (used as baseline reference) or presence of LPS (1 μg/mL, from E. coli serotype 055: B5, Sigma). Cortistatin (mouse/rat CST-14, Bachem) and its synthesised analogues were added at a concentration of 100 nM at the beginning of culture. After 24 h of culture, supernatants were harvested. Levels of the inflammatory cytokines TNFα and IL6 were determined by a specific sandwich ELISA by using capture/biotinylated detection monoclonal antibodies from BD Pharmingen (for TNFα: capture antibody clone G281-2626, cat # 551225; biotin antibody clone MP6-XT3, cat # 554415; for IL6: capture antibody clone MP5-20F3, cat # 554398; biotin MP5-32C1, cat # 554402) according to the manufacturer’s recommendations. Nitric oxide content in culture supernatants was determined by quantifying nitrite levels using the Griess assay.

[14] = system: anti-CD3-activated mouse spleen cells; assay: Proliferation and Th1-type cytokines of anti-CD3-activated spleen cells; format: cell-based; conditions: 100 nM (Supplementary Fig. 2d)
Experimental: Spleen cells were isolated from C57Bl/6J mice (male, 8-weeks-old, Charles River) by mechanical cell dissociation, filtration using a nylon filter and red cell lysing. The spleen cells were incubated in complete DMEM medium at a density of 10^6 cells/mL for 2 h. Nonadherent cells (consisting in 80% of T cells) were cultured in complete DMEM medium and stimulated with anti-mouse CD3e antibody (2 μg/mL, clone 145-2C11, BD Pharmingen, cat #: 553058) in the presence of different Cortistatin analogues (100 nM). After 48 h, culture supernatants were collected and the levels of cytokines (IFNγ and IL2) were determined by a specific sandwich ELISA by using capture/biotinylated detection monoclonal antibodies from BD Pharmingen (for IFNγ: capture antibody clone XMG1.2, cat # 554408; biotin antibody clone R4-6A2, cat # 551506; for IL2: capture antibody clone S4B6, cat # 554375; biotin antibody clone JES6-5H4, cat # 554426) according to the manufacturer’s recommendations. To determine the effect of different analogues of Cortistatin in proliferation, the cells were cultured for 72 h, 0.5 μCi (0.0185 MBq)/well of [^3H]-thymidine was added for the last 8 h of culture, harvested the membranes and [^3H]-thymidine incorporated was quantified by scintillation counting.

[15] = TNBS acute colitis, curative regime, sera 10 days after TNBS, mean ± SEM, n=8
[16] = acute colitis induced by TNBS, serum, mean of 8 mice

For Nc1ccc(O)c(C(=O)O)c1 [Mesalazine, 5-aminosalycilic acid], the “Serum IL6” value [1, 15] was 773 ± 46 pg/mL, the “Serum IL17” value [1, 15] was 233 ± 15 pg/mL and the “IL6, serum level” value [1, 16] was 0.77 ng/mL. The “TNFa, serum level” value [1, 16] was 0.78 ng/mL, the “IL17, serum level” value ([1]; acute colitis induced by TNBS, serum, mouse 1 of the group) was 0.024 ng/mL and the “IL17, serum level” value ([1]; acute colitis induced by TNBS, serum, mouse 2 of the group) was 0.024 ng/mL. For the same molecule, the “IL17, serum level” value ([1]; acute colitis induced by TNBS, serum, mouse 3 of the group) was 0.029 ng/mL, the “IL17, serum level” value ([1]; acute colitis induced by TNBS, serum, mouse 4 of the group) was 0.017 ng/mL and the “IL17, serum level” value ([1]; acute colitis induced by TNBS, serum, mouse 5 of the group) was 0.019 ng/mL. The “IL17, serum level” value ([1]; acute colitis induced by TNBS, serum, mouse 6 of the group) was 0.025 ng/mL, the “IL17, serum level” value ([1]; acute colitis induced by TNBS, serum, mouse 7 of the group) was 0.021 ng/mL and the “IL17, serum level” value ([1]; acute colitis induced by TNBS, serum, mouse 8 of the group) was 0.028 ng/mL. The “IL10 (ng/g colon)” value [2] was 3.75 ng/g colon.
In the case of C[C@@H](O)[C@@H]1NC(=O)[C@H](CCCCN)NC(=O)[C@H](Cc2c[nH]c3ccccc23)NC(=O)[C@H](Cc2ccccc2)NC(=O)[C@H](Cc2ccccc2)NC(=O)[C@H](CC(N)=O)NC(=O)[C@H](CCCCN)NC(=O)[C@@H](NC(=O)[C@@H]2CCCN2)CSSC[C@@H](C(=O)N[C@@H](CCCCN)C(=O)O)NC(=O)[C@H](CO)NC(=O)[C@H](CO)NC(=O)[C@H](Cc2ccccc2)NC1=O [CST] (H-PCKNFFWKTFSSCK-OH; disulfide 2-13), the IC50 [3] is given as 0.3 nM, the IC50 [4] is given as 0.09 nM and the IC50 [5] is given as 0.3 nM. The IC50 [6] was 0.2 nM.
Molecule CCCCCCCC(=O)N1CCC[C@H]1C(=O)N[C@H]1CSSC[C@@H](C(=O)N[C@@H](CCCCN)C(=O)O)NC(=O)[C@H](CO)NC(=O)[C@H]([C@@H](C)O)NC(=O)[C@H](Cc2ccccc2)NC(=O)[C@H]([C@@H](C)O)NC(=O)[C@H](CCCCN)NC(=O)[C@@H](Cc2c[nH]c3ccccc23)NC(=O)[C@H](Cc2ccccc2)NC(=O)[C@H](Cc2c(C)cc(C)cc2C)NC(=O)[C@H](CC(N)=O)NC(=O)[C@H](CCCCN)NC1=O [A5] has an IC50 [7] of 1.12 nM, an IC50 [8] of 35 nM and an IC50 [9] of 5.1 nM. For the same molecule, the “increase in stability with respect to the native neuropeptide” value [10] was 10 fold, the viability at 24 h, 0.1 µM [11] was 93.2% and the IC50 [12] was 47.3 nM.
With Cc1cc(C)c(C[C@@H]2NC(=O)[C@H](CC(N)=O)NC(=O)[C@H](CCCCN)NC(=O)[C@@H](NC(=O)[C@@H]3CCCN3)CSSC[C@@H](C(=O)N[C@@H](CCCCN)C(=O)O)NC(=O)[C@H](CO)NC(=O)[C@H]([C@@H](C)O)NC(=O)[C@H](Cc3ccccc3)NC(=O)[C@H]([C@@H](C)O)NC(=O)[C@H](CCCCN)NC(=O)[C@@H](Cc3c[nH]c4ccccc34)NC(=O)[C@H](Cc3ccccc3)NC2=O)c(C)c1 [A4, [L-Msa5_D-Trp7_L-Thr11]-CST 14] the IC50 [7] was 4 nM, the IC50 [8] was 9.8 nM and the “effect on the inflammatory responses in activated macrophages” value [13] was “no significant effects”. The “effect on the inflammatory responses in activated lymphocytes” value [14] was “no significant effects”, the IC50 [9] was 1.8 nM and the IC50 [12] was 14.7 nM.
